According to article PMC10049354, “Anti-Inflammatory Effects and Photo- and Neuro-Protective Properties of BIO203, a New Amide Conjugate of Norbixin, in Development for the Treatment of Age-Related Macular Degeneration (AMD)” (International Journal of Molecular Sciences, 2023):

Key:
[1] = system: primary porcine RPE cells; assay: RPE phototoxicity: photoprotection of RPE cells exposed to A2E and blue light; format: cell-based, pig; conditions: A2E 30 μM + blue-light illumination
Description: RPE cells were obtained from pig eyes, as previously described. RPE cells were seeded on a 96-well plate at a density of 1.5 × 10^5 cells/cm^2 in DMEM 2% FCS. BIO201, BIO203, or its pure enantiomers were added in increasing concentrations to the culture medium 48 h before illumination. A2E was added to the medium at a final concentration of 30 μM, and 19 h later, blue-light illumination was performed for 50 min using a 96 blue-led device (Durand, St Clair de la Tour, France) emitting at 470 nm (1440 mcd, 8.6 mA). Just before illumination, the culture medium was replaced by a modified DMEM without any photosensitizer and with 2% FCS. Twenty-four hours after blue-light irradiation, all cell nuclei were stained with Hoechst 33342, and nuclei of dead cells with ethidium homodimer 2, fixed with paraformaldehyde (4% in PBS, 10 min) and 9 pictures per well were captured using a fluorescence microscope (Nikon TiE) equipped with a CoolSNAP HQ2 camera and driven by Metamorph Premier On-Line program. Quantification of live cells was performed using Metamorph Premier Off-Line and a homemade program by subtraction of dead cells from all cells. For cytokines mRNA analysis, RPE cells were seeded in 24-well plates and left untreated or treated with A2E or BIO203 alone or A2E plus BIO203. After 48 h, cells were lysed using the lysis buffer from the NucleoSpin® RNA kit, and the samples were stored at −80 °C.

[2] = Ocular PK in rats following four repeated IP administrations; format: in vivo; conditions: rat eye; for ocular exposure: BIO201 10 mg/kg, BIO203 2.5 mg/kg
Description: The compounds were administered to 8–9 months old Male Sprague-Dawley rats (n = 3 per group and per collection time) by four successive intraperitoneal administrations in vehicle (DMSO/NaCl/NaOH for BIO203 and PBS/Tween 80 (95/5) for BIO201). The solutions of BIO203 and BIO201 were centrifuged, and the clear supernatants were administered to rats. Administered volume was 10 mL/kg, and the final injected concentrations were 10 mg/kg and 2.5 mg/kg for BIO201 and BIO203, respectively. Again, doses administered differ because BIO201 and BIO203 solubility are not equivalent in their respective vehicles. The dose of BIO203 was reduced to avoid toxicity of DMSO present in the vehicle, but the same volumes were injected into animals. The eyes were collected 1 h after administrations n°1 to 4 according to the following timing: 1 h, 3.5 h, 5.5 h, and 7.5 h. After euthanasia, the two eyes of each rat were collected in a Precellys tube, frozen, and stored at −80 °C.
(§1) Analysis was performed on an LC 1260 System coupled with Mass Spectrometer QQQ-6420 with DAD (Agilent Technologies). Norbixin and BIO203 were eluted from a reverse-phase column (2.1 × 50 mm; 3 μm particles; Ace Excel C18) with the following gradient of acetonitrile in water (both containing 0.1% formic acid): 55 to 100% in 5 min), (flowrate: 0.3 mL/min). […] were monitored by a mass spectrometer, in positive MRM mode, with the following transitions, respectively, 381.1 -> 144.9 and 478.1 -> 362.9. For quantification of BIO201 and BIO203, calibration curves were prepared under the same conditions as the sample matrix, with various amounts of BIO201 or BIO203 (25 to 10,000 ng/mL in plasma and 5 to 500 ng/mL for eyes).
For determination of concentrations of BIO201 or BIO203 in ocular tissues, each eye was homogenized in CHCl3/MeOH (1:1, v/v) (0.5 mL) with a homogenizer (Precellys-24) during 2 cycles (30 s) at 6500 rpm. The internal standard (retinoic acid at 10 µg/mL) was added, and the organic layer was extracted. The homogenate was then extracted two times with CHCl3/CH2Cl2 (0.5 mL). […]

[3] = Powder stability at RT, 4 °C and −20 °C for up to 18 months (LC-MS/MS); format: physicochemical; conditions: for loss of the compound: 4 °C
Description: The potential breakdown of BIO203 compared to BIO201 was assessed every three months in samples stored for up to 18 months at room temperature, 4 °C, and −20 °C. On the day of analysis, weighted samples of BIO203 and norbixin powder were solubilized in DMSO at 10 mg/mL final concentration. DMSO solutions were further diluted 400-fold before performing LC-MS/MS analysis which was performed on an LC 1260 System coupled with Mass Spectrometer QQQ-6420 with DAD (Supplier Agilent Technologies). BIO201 and BIO203 were eluted from a reverse-phase column (2.1 mm × 50 mm; 5 μm particles; Fortis C18) with the following gradient of acetonitrile in water (both containing 0.1% formic acid): 10 to 100% in 10 min), (flow-rate: 0.3 mL/min), (UV detection A: 460 nm, B: 254 nm, DAD: 210–500 nm), (MS scan+: 50 to 800 Frag 120 CAV 5, MS scan-: 50 to 800 Frag 120 CAV 5). The AUC value was used to determine the stability of each compound.

[4] = Acute ocular PK in rats following a single IP administration; format: in vivo, rat; conditions: for intraocular AUC / intraocular Cmax / time of intraocular Cmax post-administration: norbixin 10 mg/kg, BIO203 8.8 mg/kg
Description: The compounds were administered to 8–9 months-old Male Sprague-Dawley rats (n = 3 per group and per collection time) by the intraperitoneal route in vehicle (DMSO/NaCl/NaOH for BIO203 and PBS/Tween 80 (95/5) for norbixin) with an administration volume of 10 mL/kg. The solutions of BIO203 and norbixin were centrifuged, and the clear supernatants were administered to rats. The final injected concentrations were 10 mg/kg and 8.8 mg/kg for norbixin and BIO203, respectively. Doses administered differ because BIO201 and BIO203 solubility are not equivalent in their respective vehicles, and the dose of BIO203 was reduced to avoid toxicity of DMSO present in the vehicle, but the same volumes were injected into animals. Eyes were collected post-administration according to the following timing: 0, 0.08 h, 0.25 h, 0.5 h, 1 h, 1.5 h, 2 h, 4 h, 8 h, and 24 h. After euthanasia, the two eyes of each rat were collected in a Precellys tube, frozen, and stored at −80 °C.
as §1
For determination of concentrations of BIO201 or BIO203 in ocular tissues, each eye was homogenized in CHCl3/MeOH (1:1, v/v) (0.5 mL) with a homogenizer (Precellys-24) during 2 cycles (30 s) at 6500 rpm. The internal standard (retinoic acid at 10 µg/mL) was added, and the organic layer was extracted. The homogenate was then extracted two times with CHCl3/CH2Cl2 (0.5 mL). The combined organic extracts were dried in vacuo without heating (EZ2, Genevac Ltd., Ipswich, UK). Then they were dissolved in 100 μL DMSO/MeOH (1:1, v/v) and transferred to microtiter plates for LC-MS/MS analysis.

Q: What does the source list for `COC1CCCN(C(=O)/C=C/C(C)=C/C=C/C(C)=C/C=C/C=C(C)/C=C/C=C(C)\C=C\C(=O)O)C1` (centres unmarked) [BIO203]?
A: concentration from which protective effect was observed [1]: ≥ 10 µM; concentration of maximum efficacy / highest protection [1]: 15 µM; ocular exposure of BIO203 relative to BIO201 [2]: approximately 10 times; ocular exposure [2]: 144.9 ng·h/eye; stability ([3]; RT, +4 °C and −20 °C, 18 months): stable at all temperatures tested for at least 18 months; ocular AUC increase compared to BIO201 ([4]; discussion summary): > 200 fold; ocular Cmax increase compared to BIO201 ([4]; discussion summary): more than 10 fold; concentration at 24 h ([4]; male, Sprague-Dawley, 8.8 mg/kg, rat eye, single IP, 24 h, read-out: remaining intraocular concentration at 24 h): ~2 ng/mL; intraocular AUC of BIO203 relative to norbixin ([4]; rat eye, single IP): approximately 280 times; intraocular AUC ([4]; rat eye, single IP): 704.1 ng·h/eye; intraocular Cmax ([4]; rat eye, single IP): 133.1 ng/eye; time of intraocular Cmax post-administration ([4]; rat eye, single IP): 1 h

Q: For `CC(=C/C=C/C(C)=C/C=C/C=C(C)/C=C/C=C(C)/C=C/C(=O)O)/C=C/C(=O)O` [norbixin, 9′-cis-norbixin], which “survival of RPE cells” value ([1]; 20 μM compound) is on record?
A: The value was “more than 80%”.

Q: And the “concentration of maximum efficacy / highest protection” value [1]?
A: The value was 20 µM.

Q: And the ocular exposure [2]?
A: The ocular exposure was 16.7 ng·h/eye.

Q: And the “loss of the compound” value ([3]; 3 months)?
A: Its value is 10%.

Q: What about the “loss of the compound” value ([3]; 6 months) of the same molecule?
A: Its value is −20.8%.

Q: And the “loss of the compound” value ([3]; 12 months)?
A: The value was −66.4%.

Q: What about the “left of the initial quantity” value ([3]; RT, 3 months) of the same molecule?
A: The value was 41%.

Q: And the “left of the initial quantity” value ([3]; RT, stabilized between 12 and 18 months)?
A: The value was 22.1%.

Q: And the loss of compound ([3]; −20 °C, after one year)?
A: Its loss of compound is −18.1%.

Q: And the stability ([3]; −20 °C, up to 6 months)?
A: Its stability is “appeared stable”.

Q: And the “remaining intraocular concentration at 24 h” value ([4]; rat eye, single IP, 24 h)?
A: Its value is “no longer detectable”.

Q: And the “intraocular AUC” value ([4]; rat eye, single IP)?
A: Its value is 2.5 ng·h/eye.

Q: And the “intraocular Cmax” value ([4]; rat eye, single IP)?
A: Its value is “less than 8.5 ng/eye”.

Q: And the “time of intraocular Cmax post-administration” value ([4]; rat eye, single IP)?
A: The value was 0.25 h.
